Data: patent EP2322514A1, “Homoglutamic acid and glutamic acid derivatives” (Bayer Schering Pharma Aktiengesellschaft, priority 2009, dated 2011)

System: NSCLC tumor cells (NCl-H460)
Assay: cell competition experiment: uptake of 3H-glutamic acid into tumor cells
Assay type: cell-based
Conditions: NCI-H460 cells, 10 min incubation with 1 µci 3H-glutamic acid in PBS-buffer, test compound 1 mM (excess)
Procedure: Figure 1: Examination of biological activity of (2S)-2-Amino-7-fluoro-4-phosphonoheptanoic acid in a cell competition experiment. (NCI-H460 cells, 10 min incubation with 1 µci 3H-glutamic acid in PBS-buffer, concentration of (2S)-2-Amino-7-fluoro-4-phosphonoheptanoic acid 1 mM).
The ability of compounds from the present invention to compete with uptake of glutamic acid into tumor cells was examined. Therefore, NSCLC tumor cells (NCl-H460) were co-incubated with 3H-labeled glutamic acid and (2S)-2-Amino-7-fluoro-4-phosphonoheptanoic acid. This compound was used in excess (1 mM) to the tracer 3H-glutamic acid.

## N[C@@H](CC(CCCF)P(=O)(O)O)C(=O)O (stereo partly drawn) [(2S)-2-Amino-7-fluoro-4-phosphonoheptanoic acid]
  uptake of 3H-glutamic acid: could be decreased
